Assay results from patent publication US11286249B2, “Pyrrolidine compounds” (Eli Lilly and Company, priority 2019, dated 2022).
Structures can show the parent of a compound that is named as a salt. Values belong to the molecule of their own block, whether it stands above or below them.

Tests used:
human Apo(a) protein = human Apo(a) protein (Homo sapiens, UniProt P08519); assay: In vitro Apo(a) binding assay (competitive SPA radioligand binding); settings: human Apo(a) with 17 Kringle repeats; geometric mean ± SEM (n)
human Apo(a) protein, sequence (P08519 20-2040 limits assumed): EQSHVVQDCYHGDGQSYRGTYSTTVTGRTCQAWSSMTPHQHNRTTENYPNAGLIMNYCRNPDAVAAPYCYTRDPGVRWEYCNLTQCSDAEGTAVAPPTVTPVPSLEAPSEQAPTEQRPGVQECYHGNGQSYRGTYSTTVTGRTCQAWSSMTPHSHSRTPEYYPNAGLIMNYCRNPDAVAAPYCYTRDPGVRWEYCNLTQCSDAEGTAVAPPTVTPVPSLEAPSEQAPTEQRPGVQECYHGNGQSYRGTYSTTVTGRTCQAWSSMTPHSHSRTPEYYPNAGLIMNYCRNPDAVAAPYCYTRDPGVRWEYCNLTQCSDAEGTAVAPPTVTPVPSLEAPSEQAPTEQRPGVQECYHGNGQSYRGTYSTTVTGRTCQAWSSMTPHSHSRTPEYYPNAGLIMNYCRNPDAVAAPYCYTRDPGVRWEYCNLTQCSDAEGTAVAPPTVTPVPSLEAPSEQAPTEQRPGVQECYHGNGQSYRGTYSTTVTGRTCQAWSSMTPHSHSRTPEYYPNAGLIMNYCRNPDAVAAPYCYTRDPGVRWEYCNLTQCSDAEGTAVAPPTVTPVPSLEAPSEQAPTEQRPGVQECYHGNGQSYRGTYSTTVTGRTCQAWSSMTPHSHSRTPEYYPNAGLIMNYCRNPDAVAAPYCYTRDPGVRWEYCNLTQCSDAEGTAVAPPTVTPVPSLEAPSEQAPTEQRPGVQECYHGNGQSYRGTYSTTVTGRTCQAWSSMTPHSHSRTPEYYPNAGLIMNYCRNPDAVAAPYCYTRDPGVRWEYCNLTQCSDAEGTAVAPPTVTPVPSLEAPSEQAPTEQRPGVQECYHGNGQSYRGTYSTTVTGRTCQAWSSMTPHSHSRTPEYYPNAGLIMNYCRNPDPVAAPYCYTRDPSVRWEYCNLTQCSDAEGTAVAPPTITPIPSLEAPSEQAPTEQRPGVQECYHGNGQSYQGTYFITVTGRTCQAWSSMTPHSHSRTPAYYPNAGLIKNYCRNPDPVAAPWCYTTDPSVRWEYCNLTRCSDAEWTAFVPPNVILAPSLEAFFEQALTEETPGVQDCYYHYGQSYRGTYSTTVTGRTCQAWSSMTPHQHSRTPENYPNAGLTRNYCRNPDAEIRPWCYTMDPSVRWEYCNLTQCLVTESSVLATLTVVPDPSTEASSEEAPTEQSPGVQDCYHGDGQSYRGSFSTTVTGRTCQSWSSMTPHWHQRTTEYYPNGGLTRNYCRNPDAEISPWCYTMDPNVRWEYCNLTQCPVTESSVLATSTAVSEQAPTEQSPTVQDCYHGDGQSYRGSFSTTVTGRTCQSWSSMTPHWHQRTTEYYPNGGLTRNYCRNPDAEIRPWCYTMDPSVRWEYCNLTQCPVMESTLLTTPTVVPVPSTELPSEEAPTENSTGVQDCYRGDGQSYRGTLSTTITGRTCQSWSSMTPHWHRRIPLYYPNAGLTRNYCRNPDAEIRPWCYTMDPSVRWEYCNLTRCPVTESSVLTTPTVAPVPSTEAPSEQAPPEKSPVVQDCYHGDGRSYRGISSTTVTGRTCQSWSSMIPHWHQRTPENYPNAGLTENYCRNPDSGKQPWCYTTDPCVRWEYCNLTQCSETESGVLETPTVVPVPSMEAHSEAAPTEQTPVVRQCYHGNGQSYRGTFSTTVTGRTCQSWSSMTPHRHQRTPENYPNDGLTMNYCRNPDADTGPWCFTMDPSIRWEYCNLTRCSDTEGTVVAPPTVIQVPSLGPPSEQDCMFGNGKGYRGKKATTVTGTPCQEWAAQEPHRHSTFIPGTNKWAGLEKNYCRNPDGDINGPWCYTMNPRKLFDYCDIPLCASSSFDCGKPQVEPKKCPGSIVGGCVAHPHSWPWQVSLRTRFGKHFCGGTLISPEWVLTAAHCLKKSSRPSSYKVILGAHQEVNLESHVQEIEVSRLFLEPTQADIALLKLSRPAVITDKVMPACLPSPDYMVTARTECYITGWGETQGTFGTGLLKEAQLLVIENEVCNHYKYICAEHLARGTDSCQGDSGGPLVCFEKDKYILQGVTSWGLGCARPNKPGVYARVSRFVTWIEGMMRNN
Protocol: The in vitro binding affinity of compounds to the intended target human Apo(a) protein is tested in a competitive binding assay. Human Apo(a) protein containing 17 Kringle repeats is affinity purified from conditioned media of transiently transfected HEK-293F cells. All reagents are prepared in assay buffer containing 50 mM Tris-HCl pH 7.4, 0.1% BSA. The binding assay is conducted by adding to each well of a clear-bottom plate […] of (1) test compound in dilution series (final concentration […]), (2) Apo(a) protein (6 ng/well), (3) re-suspended Wheat Germ Agglutinin Polyvinyltoluene SPA beads (20 mg/ml), and (4) the radioligand, tritium-labeled (2S)-3-[3-[2-oxo-3-[3-(tritritiomethoxy)phenyl]imidazolidin-1-yl]phenyl]-2-[(3R)-pyrrolidin-3-yl]propanoic acid; hydrochloride (final concentration 0.52 nM). Plates are incubated for 60 minutes at RT and counted on TRILUX LSC. […] Data are analyzed by fitting to a standard single site binding model and the IC50 for the Example test compound is determined. […] Inhibition of the assembly of the LDL particle with apo(a) through binding to the Apo(a) protein supports a reduction in Lp(a) levels.

plasma Lp(a) = assay: In vivo Lp(a) inhibition in mice; settings: for Lp(a) inhibition (% at 30 mpk): 30 mpk oral twice a day; for Lp(a) inhibition (% at 30 mpk) / ED50: day 3 at 8 h post morning oral dose; for Lp(a) inhibition (% at 30 mpk) / Lp(a) inhibition (%): mean ± SEM; for ED50: effective dose for 50% Lp(a) inhibition, oral, twice a day, ED50 ± standard error
Protocol: The ability of compounds to reduce steady-state Lp(a) level in vivo is assessed in a transgenic mouse model capable of producing humanized Lp(a) particles. In vivo effects of Lp(a) disruptor compounds are tested in 7 to 17-month-old female double transgenic mice expressing human apoB-100 and human apo(a) containing 17 Kringle repeats: B6.SJL-Tg(APOB)1102Sgy Tg(Alb-LPA)32Arte. Mice are housed with standard light cycle (12 hrs. light/12 hrs. dark), at RT 72±8° F. and relative humidity of 30˜70%, and with free access to water and normal chow diet (Harlan Tecklad diet 2014). Mice are randomized to treatment groups (n=5/group) 3 to 5 days before the study by body weight and baseline plasma Lp(a) concentration using BRAT (Block Randomized Allocation Tool) for the study. Mice are orally dosed (or subcutaneously where noted) with vehicle (oral dose vehicle: 10 mL/kg, 1% HEC, 0.25% Tween80, 0.01% Antifoam; subcutaneous dose vehicle: 5 mL/kg saline) or test compound at various dose levels twice a day (6:30 am and […]) for 5 days. Blood is collected in heparin-coated capillary tubes via tail bleed. Twenty μL of each blood sample is transferred to a DBS card (Whatman Cat #: WB12 9243) for drug exposure analysis. The remaining blood samples are centrifuged to separate plasma. Lp(a) concentration in plasma is measured using a sandwich ELISA as described for the in vitro Lp(a) assembly assay. The % inhibition for each dose group is determined with the mean the Lp(a) level of the vehicle control group set to 0% inhibition. […] ED50 (effective dose for 50% Lp(a) inhibition) calculations as determined by Threshold Minimum Effective Dose analysis.

[1] = biological target: assembly of Lp(a) from Apo(a) and the LDL particle (Homo sapiens, UniProt P08519); assay: In vitro Lp(a) assembly assay (cell-free, HepG2 and HEK293 conditioned media, sandwich ELISA); assay type: biochemical; settings: inhibition of Lp(a) formation, 37° C. for 2 hrs; geometric mean ± SEM (n)
assembly of Lp(a) from Apo(a) and the LDL particle, sequence (P08519 20-2040 limits assumed): as above
Protocol: The ability of compounds to inhibit the formation of Lp(a) particles in vitro is assessed by a cell-free assembly assay. Conditioned media (DMEM supplemented with 10% FBS, 20 mM HEPES, and 1× penicillin/streptomycin) is collected from confluent wild-type HepG2 cells (a source of endogenously expressed ApoB) and from a HEK293 stable cell line expressing human Apo(a) protein containing 17 Kringle repeats (selected on 1 mg/ml geneticin) after 24 hours of culture at 37° C. and 5% CO2. An in vitro assembly assay is conducted by combining equal parts of HepG2 and HEK293 conditioned media with the test compounds added in dilution series (final concentration 0.01˜100 nM). The reaction is incubated at 37° C. for 2 hrs and then stopped with the addition of 6-aminocaproic acid (EACA) to a final concentration of 150 mM. Lp(a) is detected using a sandwich ELISA with an anti-Lp(a) capture antibody and an HRP-conjugated anti-ApoB detection antibody. The ELISA is developed using TMB, stopped using 1 N sulfuric acid, and the signal is read at 450 nm on a Molecular Devices plate reader.

[2] = 30 mg/kg oral twice a day, day 3 at 4 h post morning dose

SMILES: O=C(O)[C@@H](Cc1cccc(CN(Cc2cccc(C[C@H](C(=O)O)[C@H]3CCNC3)c2)Cc2cccc(C[C@H](C(=O)O)[C@H]3CCNC3)c2)c1)[C@H]1CCNC1 [Example 1, (2S)-3-[3-[[Bis[[3-[(2S)-2-carboxy-2-[(3R)-pyrrolidin-3-yl]ethyl]phenyl]methyl]amino]methyl]phenyl]-2-[(3R)-pyrrolidin-3-yl]propanoic acid; tetrahydrochloride]
- IC50 (human Apo(a) protein): < 314 pM
- Lp(a) inhibition (% at 30 mpk) (plasma Lp(a)): 91 ± 0.73%
- ED50 (plasma Lp(a)): 3.3 ± 0.53 mg/kg
- IC50 [1]: 96.3 ± 23.3 pM

SMILES: O=C(O)[C@@H](Cc1cccc(OCCOc2cccc(C[C@H](C(=O)O)[C@H]3CCNC3)c2)c1)[C@H]1CCNC1 [Example 8, (2S)-3-[3-[2-[3-[(2S)-2-carboxy-2-[(3R)-pyrrolidin-3-yl]ethyl]phenoxy]ethoxy]phenyl]-2-[(3R)-pyrrolidin-3-yl]propanoic acid; dihydrochloride]
- IC50 [1]: 288 ± 190 pM

SMILES: O=C(O)[C@@H](Cc1cccc([S+]([O-])c2cccc(C[C@H](C(=O)O)[C@H]3CCNC3)c2)c1)[C@H]1CCNC1 [Example 11, (2S)-3-[3-[3-[(2S)-2-Carboxy-2-[(3R)-pyrrolidin-3-yl]ethyl]phenyl]sulfinylphenyl]-2-[(3R)-pyrrolidin-3-yl]propanoic acid; dihydrochloride]
- IC50 [1]: 396 ± 241 pM

SMILES: O=C(O)[C@@H](Cc1cccc(S(=O)(=O)c2cccc(C[C@H](C(=O)O)[C@H]3CCNC3)c2)c1)[C@H]1CCNC1 [Example 12, (2S)-3-[3-[3-[(2S)-2-Carboxy-2-[(3R)-pyrrolidin-3-yl]ethyl]phenyl]sulfonylphenyl]-2-[(3R)-pyrrolidin-3-yl]propanoicacid; dihydrochloride]
- Lp(a) inhibition (%) (plasma Lp(a); 30 mg/kg oral twice a day, day 3, samples taken at 8 h post oral dosing): 50 ± 3.82^3%
- IC50 [1]: 235 ± 50.9 pM

SMILES: O=C(O)[C@@H](Cc1cccc(Nc2cccc(C[C@H](C(=O)O)[C@H]3CCNC3)c2)c1)[C@H]1CCNC1 [Example 14, (2S)-3-[3-[3-[(2S)-2-Carboxy-2-[(3R)-pyrrolidin-3-yl]ethyl]anilino]phenyl]-2-[(3R)-pyrrolidin-3-yl]propanoic acid; dihydrochloride]
- IC50 (human Apo(a) protein): < 314 pM
- Lp(a) inhibition (% at 30 mpk) (plasma Lp(a)): 72 ± 2.23%
- ED50 (plasma Lp(a)): 14.6 ± 2.48 mg/kg
- IC50 [1]: 348 ± 98.4 pM

SMILES: Cl.O=C(O)[C@@H](Cc1ccccc1)[C@H]1CCNC1 [Example 17, (2S)-3-Phenyl-2-[(3R)-pyrrolidin-3-yl]propanoic acid; hydrochloride]
- Lp(a) inhibition (% at 30 mpk) (plasma Lp(a)): 60 ± 3.46%
- ED50 (plasma Lp(a)): 20.6 ± 1.79 mg/kg

SMILES: Cl.O=C(O)[C@H](Cc1ccccc1)[C@@H]1CCNC1 [Example 18, (2R)-3-Phenyl-2-[(3S)-pyrrolidin-3-yl]propanoic acid; hydrochloride]
- Lp(a) inhibition (% at 30 mpk) (plasma Lp(a)): 68 ± 1.82%
- ED50 (plasma Lp(a)): 7.6 ± 2.43 mg/kg

Further lines, with some results ahead:

- IC50 (human Apo(a) protein): 2130 ± 159 pM
- IC50 [1]: 934 ± 306 pM
SMILES: O=C(O)[C@@H](Cc1cccc(CNCc2cccc(C[C@H](C(=O)O)[C@H]3CCNC3)c2)c1)[C@H]1CCNC1 [Example 3, (2S)-3-[3-[[[3-[(2S)-2-Carboxy-2-[(3R)-pyrrolidin-3-yl]ethyl]phenyl]methylamino]methyl]phenyl]-2-[(3R)-pyrrolidin-3-yl]propanoic acid; trihydrochloride]

- IC50 [1]: 170 ± 12.4 pM
SMILES: COc1cc(F)cc(CN(Cc2cccc(C[C@H](C(=O)O)[C@H]3CCNC3)c2)Cc2cccc(C[C@H](C(=O)O)[C@H]3CCNC3)c2)c1 [Example 5, (2S)-3-[3-[[[3-[(2S)-2-Carboxy-2-[(3R)-pyrrolidin-3-yl]ethyl]phenyl]methyl-[(3-fluoro-5-methoxy-phenyl)methyl]amino]methyl]phenyl]-2-[(3R)-pyrrolidin-3-yl]propanoic acid; trihydrochloride]
- Lp(a) inhibition (%) (plasma Lp(a); 3 mg/kg oral twice a day, day 3 at 4 h post morning dose): 43.8 ± 4.24%

- IC50 (human Apo(a) protein): < 314 pM
- IC50 [1]: 108 ± 14.9 pM
SMILES: CC(Cc1cccc(CN(Cc2cccc(CC(C)(C(=O)O)[C@H]3CCNC3)c2)Cc2cccc(CC(C)(C(=O)O)[C@H]3CCNC3)c2)c1)(C(=O)O)[C@H]1CCNC1 (stereo partly drawn) [Example 6, 3-[3-[[bis[[3-[2-carboxy-2-[(3R)-pyrrolidin-3-yl]propyl]phenyl]methyl]amino]methyl]phenyl]-2-methyl-2-[(3R)-pyrrolidin-3-yl]propanoic acid; tetrahydrochloride]

- IC50 [1]: 372 ± 46.4 pM
SMILES: O=C(O)[C@@H](Cc1cccc(Oc2cccc(C[C@H](C(=O)O)[C@H]3CCNC3)c2)c1)[C@H]1CCNC1 [Example 7, (2S)-3-[3-[3-[(2S)-2-carboxy-2-[(3R)-pyrrolidin-3-yl]ethyl]phenoxy]phenyl]-2-[(3R)-pyrrolidin-3-yl]propanoicacid; dihydrochloride]
- Lp(a) inhibition (%) (plasma Lp(a); 30 mg/kg subcutaneous dosing twice a day, day 3 at 4 h post morning dose): 44.6 ± 5.0%

- IC50 [1]: 359 ± 29.2 pM
SMILES: O=C(O)[C@@H](Cc1cccc(COc2cccc(C[C@H](C(=O)O)[C@H]3CCNC3)c2)c1)[C@H]1CCNC1 [Example 9, (2S)-3-[3-[[3-[(2S)-2-Carboxy-2-[(3R)-pyrrolidin-3-yl]ethyl]phenoxy]methyl]phenyl]-2-[(3R)-pyrrolidin-3-yl]propanoic acid; dihydrochloride]
- Lp(a) inhibition (%) (plasma Lp(a); [2]): 56.5 ± 2.77%

- IC50 [1]: 360 ± 119 pM
SMILES: O=C(O)[C@@H](Cc1cccc(Sc2cccc(C[C@H](C(=O)O)[C@H]3CCNC3)c2)c1)[C@H]1CCNC1 [Example 10, (2S)-3-[3-[3-[(2S)-2-Carboxy-2-[(3R)-pyrrolidin-3-yl]ethyl]phenyl]sulfanylphenyl]-2-[(3R)-pyrrolidin-3-yl]propanoic acid; dihydrochloride]
- Lp(a) inhibition (%) (plasma Lp(a); [2]): 43.6 ± 4.6%

- IC50 [1]: 2390 ± 610 pM
SMILES: O=C(O)[C@@H](Cc1cccc(CNc2cccc(C[C@H](C(=O)O)[C@H]3CCNC3)c2)c1)[C@H]1CCNC1 [Example 13, (2S)-3-[3-[[3-[(2S)-2-Carboxy-2-[(3R)-pyrrolidin-3-yl]ethyl]anilino]methyl]phenyl]-2-[(3R)-pyrrolidin-3-yl]propanoicacid; trihydrochloride]

- IC50 [1]: 54600 ± 9150 pM
SMILES: CN1CC[C@H]([C@H](Cc2cccc(Nc3cccc(C[C@H](C(=O)O)[C@H]4CCN(C)C4)c3)c2)C(=O)O)C1 [Example 15, (2S)-3-[3-[3-[(2S)-2-carboxy-2-[(3R)-1-methylpyrrolidin-3-yl]ethyl]anilino]phenyl]-2-[(3R)-1-methylpyrrolidin-3-yl]propanoic acid; dihydrochloride]

- IC50 [1]: 563 ± 119 pM
SMILES: O=C(O)[C@@H](Cc1cccc(NS(=O)(=O)Nc2cccc(C[C@H](C(=O)O)[C@H]3CCNC3)c2)c1)[C@H]1CCNC1 [Example 16, (2S,2′S)-3,3′-[Sulfonylbis(azanediyl-3,1-phenylene)]bis{2-[(3R)-pyrrolidin-3-yl]propanoic acid}; dihydrochloride]
